# Values joined by “and” are separate entries in the source; they are usually repeats but may differ in a detail not shown here. Identical values can stand only once.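 GI50: concentration for 50% inhibition of growth. TGI marks complete inhibition of growth.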
# Assays:
# Test in all cases: growth of human tumour cells (NCI), 384-well format
# OVCAR-3 ovarian = test system: OVCAR-3 ovarian
# OVCAR-8 ovarian = test system: OVCAR-8 ovarian
# SK-OV-3 ovarian = test system: SK-OV-3 ovarian
# MCF7 breast = test system: MCF7 breast
# COLO 205 colon = test system: COLO 205 colon
# NCI-H23 lung = test system: NCI-H23 lung
# MDA-MB-231 breast = test system: MDA-MB-231 breast
# SR leukemia = test system: SR leukemia
# HL-60(TB) leukemia = test system: HL-60(TB) leukemia
# BT-549 breast = test system: BT-549 breast
# DU-145 prostate = test system: DU-145 prostate
# HT29 colon = test system: HT29 colon
# HOP-92 NSCLC = test system: HOP-92 NSCLC
# NCI-H522 lung = test system: NCI-H522 lung
# SN12C renal = test system: SN12C renal
# CAKI-1 renal = test system: CAKI-1 renal
# RPMI-8226 leukemia = test system: RPMI-8226 leukemia
# HOP-62 NSCLC = test system: HOP-62 NSCLC
# SNB-75 CNS = test system: SNB-75 CNS
# UACC-257 melanoma = test system: UACC-257 melanoma
# NCI-H460 NSCLC = test system: NCI-H460 NSCLC
# CCRF-CEM leukemia = test system: CCRF-CEM leukemia
# SF-539 CNS = test system: SF-539 CNS
# MALME-3M melanoma = test system: MALME-3M melanoma
# LOX IMVI melanoma = test system: LOX IMVI melanoma
# SF-295 CNS = test system: SF-295 CNS
# NCI-H322M lung = test system: NCI-H322M lung
# UO-31 renal = test system: UO-31 renal
# A498 renal = test system: A498 renal
# NCI/ADR-RES ovarian = test system: NCI/ADR-RES ovarian
# HCC-2998 colon = test system: HCC-2998 colon
# A549 NSCLC = test system: A549 NSCLC
# SNB-19 CNS = test system: SNB-19 CNS
# MDA-MB-435 melanoma = test system: MDA-MB-435 melanoma
# T-47D breast = test system: T-47D breast
# TK-10 renal = test system: TK-10 renal
# SF-268 CNS = test system: SF-268 CNS
# IGROV1 ovarian = test system: IGROV1 ovarian
# K-562 leukemia = test system: K-562 leukemia
# PC-3 prostate = test system: PC-3 prostate
# 786-0 renal = test system: 786-0 renal
# HS 578T breast = test system: HS 578T breast
# ACHN renal = test system: ACHN renal
# NCI-H226 lung = test system: NCI-H226 lung
# OVCAR-4 ovarian = test system: OVCAR-4 ovarian
# HCT-116 colon = test system: HCT-116 colon
# UACC-62 melanoma = test system: UACC-62 melanoma
# RXF 393 renal = test system: RXF 393 renal
# MOLT-4 leukemia = test system: MOLT-4 leukemia
# M14 melanoma = test system: M14 melanoma
# SW-620 colon = test system: SW-620 colon
# SK-MEL-5 melanoma = test system: SK-MEL-5 melanoma
# U251 glioblastoma = test system: U251 glioblastoma
# EKVX NSCLC = test system: EKVX NSCLC
# HCT-15 colon = test system: HCT-15 colon
# KM12 colon = test system: KM12 colon
# MDA-MB-468 breast = test system: MDA-MB-468 breast
# SK-MEL-28 melanoma = test system: SK-MEL-28 melanoma
smiles,measurement,setting,value
Cc1cc(C(=O)NC(CCC(=O)O)C(=O)O)sc1CCC1CNc2nc(N)[nH]c(=O)c2C1 (stereo unspecified),GI50,OVCAR-3 ovarian,21.7 nM and 29 nM
same,TGI,OVCAR-3 ovarian,53.9 nM and 82.6 nM
same,GI50,OVCAR-8 ovarian,< 10 nM
same,TGI,OVCAR-8 ovarian,< 10 nM and 11.6 nM
same,GI50,SK-OV-3 ovarian,< 10 nM
same,TGI,SK-OV-3 ovarian,< 10 nM
same,GI50,MCF7 breast,< 10 nM and 17.5 nM
same,TGI,MCF7 breast,28 nM and 47.7 nM
same,GI50,COLO 205 colon,28.5 nM and 29.7 nM
same,TGI,COLO 205 colon,81.6 nM and 141 nM
same,GI50,NCI-H23 lung,29 nM and 150 nM
same,TGI,NCI-H23 lung,85.4 nM and 401 nM
same,GI50,MDA-MB-231 breast,388 nM and 1680 nM
same,TGI,MDA-MB-231 breast,1430 nM and 3460 nM
same,GI50,SR leukemia,> 100000 nM
same,TGI,SR leukemia,> 100000 nM
same,GI50,HL-60(TB) leukemia,< 10 nM
same,TGI,HL-60(TB) leukemia,< 10 nM and 14.1 nM
same,GI50,BT-549 breast,19.3 nM and 18.2 nM
same,TGI,BT-549 breast,37.5 nM and 36.4 nM
same,GI50,DU-145 prostate,< 10 nM
same,TGI,DU-145 prostate,< 10 nM and 29.4 nM
same,GI50,HT29 colon,< 10 nM and 17 nM
same,TGI,HT29 colon,28.5 nM and 46.4 nM
same,GI50,HOP-92 NSCLC,< 10 nM
same,TGI,HOP-92 NSCLC,< 10 nM and 14.9 nM
same,GI50,NCI-H522 lung,< 10 nM and 17.6 nM
same,TGI,NCI-H522 lung,18.7 nM and 34.3 nM
same,GI50,SN12C renal,< 10 nM
same,TGI,SN12C renal,< 10 nM and 23.4 nM
same,GI50,CAKI-1 renal,< 10 nM
same,TGI,CAKI-1 renal,< 10 nM
same,GI50,RPMI-8226 leukemia,17.7 nM and 17.1 nM
same,TGI,RPMI-8226 leukemia,35.4 nM and 36 nM
same,GI50,HOP-62 NSCLC,18.2 nM
same,TGI,HOP-62 NSCLC,34.6 nM and 35.8 nM
same,GI50,SNB-75 CNS,< 10 nM
same,TGI,SNB-75 CNS,< 10 nM and 14.3 nM
same,GI50,UACC-257 melanoma,12.9 nM and 18.3 nM
same,TGI,UACC-257 melanoma,36.5 nM and 46.9 nM
same,GI50,NCI-H460 NSCLC,< 10 nM and 10.9 nM
same,TGI,NCI-H460 NSCLC,> 100000 nM
same,GI50,CCRF-CEM leukemia,< 10 nM
same,TGI,CCRF-CEM leukemia,11.8 nM and 18.6 nM
same,GI50,SF-539 CNS,< 10 nM
same,TGI,SF-539 CNS,< 10 nM and 20.5 nM
same,GI50,MALME-3M melanoma,16 nM and 19.8 nM
same,TGI,MALME-3M melanoma,35.8 nM and 41.1 nM
same,GI50,LOX IMVI melanoma,19.4 nM and 20 nM
same,TGI,LOX IMVI melanoma,40.7 nM and 44.4 nM
same,GI50,SF-295 CNS,18.4 nM and 18.6 nM
same,TGI,SF-295 CNS,35.4 nM and 36.3 nM
same,GI50,NCI-H322M lung,17.8 nM and 20.2 nM
same,TGI,NCI-H322M lung,37 nM and 43.5 nM
same,GI50,UO-31 renal,< 10 nM and 18.7 nM
same,TGI,UO-31 renal,< 10 nM and 39.1 nM
same,GI50,A498 renal,< 10 nM
same,TGI,A498 renal,11.3 nM and 25.3 nM
same,GI50,NCI/ADR-RES ovarian,19 nM and 17.5 nM
same,TGI,NCI/ADR-RES ovarian,35.6 nM and 34 nM
same,GI50,HCC-2998 colon,22.4 nM and 51.4 nM
same,TGI,HCC-2998 colon,77.2 nM and 378 nM
same,GI50,A549 NSCLC,20.1 nM and 24.2 nM
same,TGI,A549 NSCLC,42.8 nM and 61 nM
same,GI50,SNB-19 CNS,< 10 nM and 13 nM
same,TGI,SNB-19 CNS,< 10 nM and 30.1 nM
same,GI50,MDA-MB-435 melanoma,17.3 nM and 16.7 nM
same,TGI,MDA-MB-435 melanoma,38.2 nM and 38.7 nM
same,GI50,T-47D breast,23.8 nM and 30.3 nM
same,TGI,T-47D breast,> 100000 nM
same,GI50,TK-10 renal,< 10 nM
same,TGI,TK-10 renal,< 10 nM
same,GI50,SF-268 CNS,< 10 nM
same,TGI,SF-268 CNS,< 10 nM and 18.7 nM
same,GI50,IGROV1 ovarian,19.7 nM and 20.3 nM
same,TGI,IGROV1 ovarian,40.9 nM and 43.8 nM
same,GI50,K-562 leukemia,< 10 nM
same,TGI,K-562 leukemia,< 10 nM
same,GI50,PC-3 prostate,< 10 nM
same,TGI,PC-3 prostate,< 10 nM
same,GI50,786-0 renal,< 10 nM
same,TGI,786-0 renal,< 10 nM
same,GI50,HS 578T breast,22 nM and 25.9 nM
same,TGI,HS 578T breast,60.1 nM and 107 nM
same,GI50,ACHN renal,< 10 nM and 19.6 nM
same,TGI,ACHN renal,< 10 nM and 43.1 nM
same,GI50,NCI-H226 lung,24.2 nM and 25.8 nM
same,TGI,NCI-H226 lung,59.1 nM and 75.1 nM
same,GI50,OVCAR-4 ovarian,20.5 nM and 22 nM
same,TGI,OVCAR-4 ovarian,88.1 nM and 70.7 nM
same,GI50,HCT-116 colon,< 10 nM and 15.9 nM
same,TGI,HCT-116 colon,24.8 nM and 39.8 nM
same,GI50,UACC-62 melanoma,11.3 nM and 25.6 nM
same,TGI,UACC-62 melanoma,59.4 nM and 75.1 nM
same,GI50,RXF 393 renal,< 10 nM
same,TGI,RXF 393 renal,< 10 nM
same,GI50,MOLT-4 leukemia,< 10 nM
same,TGI,MOLT-4 leukemia,12.8 nM and 16.8 nM
same,GI50,M14 melanoma,< 10 nM
same,TGI,M14 melanoma,< 10 nM and 22.8 nM
same,GI50,SW-620 colon,< 10 nM and 13.3 nM
same,TGI,SW-620 colon,21.1 nM and 35.6 nM
same,GI50,SK-MEL-5 melanoma,24.5 nM and 33.3 nM
same,TGI,SK-MEL-5 melanoma,91.6 nM and 202 nM
same,GI50,U251 glioblastoma,< 10 nM and 16.4 nM
same,TGI,U251 glioblastoma,22.9 nM and 33.5 nM
same,GI50,EKVX NSCLC,12 nM and 17.1 nM
same,TGI,EKVX NSCLC,28.8 nM and 36.1 nM
same,GI50,HCT-15 colon,25 nM and 31.4 nM
same,TGI,HCT-15 colon,73.3 nM and 158 nM
same,GI50,KM12 colon,25.6 nM and 28.7 nM
same,TGI,KM12 colon,97.6 nM and 196 nM
same,GI50,MDA-MB-468 breast,17.5 nM and 17.6 nM
same,TGI,MDA-MB-468 breast,33.9 nM and 37.5 nM
same,GI50,SK-MEL-28 melanoma,13.2 nM and 16.9 nM
same,TGI,SK-MEL-28 melanoma,29.6 nM and 34.7 nM
